Read-outs that look alike come from different tables or passages of the source.
Key:
SaSerRS [1] = biological target: T1, SaSerRS (Staphylococcus aureus, UniProt P95689); assay: continuous coupled spectrophotometric assay of adenylate formation; assay type: biochemical
EcSerRS [2] = biological target: T2, EcSerRS (Escherichia coli, UniProt P0A8L1); assay: as above; assay type: biochemical
EcSerRS [3] = biological target: T2, EcSerRS; assay: biochemical
SaSerRS [4] = biological target: T1, SaSerRS; assay: biochemical
HsSerRS [5] = biological target: T3, HsSerRS (Homo sapiens, UniProt P49591); assay: biochemical
T3 sequence (P49591 whole entry, looked up): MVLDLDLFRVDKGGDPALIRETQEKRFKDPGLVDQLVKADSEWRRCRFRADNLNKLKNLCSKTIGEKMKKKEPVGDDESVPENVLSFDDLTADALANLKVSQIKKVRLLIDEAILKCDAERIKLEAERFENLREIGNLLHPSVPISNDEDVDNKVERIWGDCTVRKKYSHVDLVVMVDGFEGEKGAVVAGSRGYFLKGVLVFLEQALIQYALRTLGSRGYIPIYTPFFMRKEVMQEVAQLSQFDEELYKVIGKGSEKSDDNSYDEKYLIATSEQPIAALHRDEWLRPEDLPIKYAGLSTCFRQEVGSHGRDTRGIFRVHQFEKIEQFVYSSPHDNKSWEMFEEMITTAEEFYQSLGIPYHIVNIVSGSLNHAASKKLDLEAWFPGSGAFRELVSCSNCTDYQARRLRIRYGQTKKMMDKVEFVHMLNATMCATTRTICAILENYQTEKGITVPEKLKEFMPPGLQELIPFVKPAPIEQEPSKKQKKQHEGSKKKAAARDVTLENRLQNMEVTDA

HsSerRS [6] = biological target: T3, HsSerRS; assay type: biochemical
[7] = pH 7.6, 37 °C, 10 mM MgCl2, 10% DMSO

T2 sequence (P0A8L1 whole entry): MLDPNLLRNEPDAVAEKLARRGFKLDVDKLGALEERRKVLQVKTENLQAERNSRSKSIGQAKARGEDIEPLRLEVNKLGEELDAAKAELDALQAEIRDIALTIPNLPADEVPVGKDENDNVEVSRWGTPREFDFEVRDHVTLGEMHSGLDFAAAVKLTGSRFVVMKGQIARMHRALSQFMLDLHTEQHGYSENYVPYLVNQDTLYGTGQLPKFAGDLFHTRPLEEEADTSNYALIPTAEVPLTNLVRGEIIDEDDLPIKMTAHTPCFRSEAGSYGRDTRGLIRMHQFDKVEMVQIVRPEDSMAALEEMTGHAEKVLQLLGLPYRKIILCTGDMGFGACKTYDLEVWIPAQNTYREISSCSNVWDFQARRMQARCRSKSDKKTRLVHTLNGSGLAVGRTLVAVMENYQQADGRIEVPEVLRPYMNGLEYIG
T1 sequence (P95689 whole entry): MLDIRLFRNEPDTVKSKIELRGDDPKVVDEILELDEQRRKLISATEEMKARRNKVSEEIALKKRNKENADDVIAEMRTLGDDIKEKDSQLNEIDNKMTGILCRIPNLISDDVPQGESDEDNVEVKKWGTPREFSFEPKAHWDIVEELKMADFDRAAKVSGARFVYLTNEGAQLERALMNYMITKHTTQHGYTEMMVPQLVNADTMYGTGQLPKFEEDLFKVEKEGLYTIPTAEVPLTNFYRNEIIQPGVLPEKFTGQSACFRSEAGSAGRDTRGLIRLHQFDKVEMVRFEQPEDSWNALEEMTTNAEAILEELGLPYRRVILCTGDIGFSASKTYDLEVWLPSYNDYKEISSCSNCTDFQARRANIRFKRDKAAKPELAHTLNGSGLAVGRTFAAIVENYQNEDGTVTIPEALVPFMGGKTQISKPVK

SMILES: Nc1nc(I)nc2c1ncn2[C@@H]1O[C@H](COS(=O)(=O)NC(=O)[C@@H](N)CO)[C@@H](O)[C@H]1O [compound 3]
- IC50 (SaSerRS [1]; [7]): 0.38 ± 0.04 µM
- IC50 (EcSerRS [2]; [7]): 1.36 ± 0.12 µM

SMILES: C[C@H](N)C(=O)NS(=O)(=O)OC[C@H]1O[C@@H](n2cnc3c(N)ncnc32)[C@H](O)[C@@H]1O [compound 9, AlaSA]
- IC50 (EcSerRS [3]): > 1000 µM
- IC50 (SaSerRS [4]): > 1000 µM
- IC50 (HsSerRS [5]): > 1000 µM

SMILES: C[C@@H](O)[C@H](N)C(=O)NS(=O)(=O)OC[C@H]1O[C@@H](n2cnc3c(N)ncnc32)[C@H](O)[C@@H]1O [compound 10, ThrSA]
- IC50 (SaSerRS [1]): 231 µM
- IC50 (EcSerRS [2]): 285 µM
- IC50 (HsSerRS [5]): > 1000 µM

SMILES: Nc1nc(-c2cccnc2)nc2c1ncn2[C@@H]1O[C@H](COS(=O)(=O)NC(=O)[C@@H](N)CO)[C@@H](O)[C@H]1O [compound 8]
- IC50 (SaSerRS [1]; [7]): 6.34 ± 0.71 µM
- IC50 (EcSerRS [2]; [7]): 6.65 ± 0.64 µM

SMILES: Nc1nc(-c2ccccc2)nc2c1ncn2[C@@H]1O[C@H](COS(=O)(=O)NC(=O)[C@@H](N)CO)[C@@H](O)[C@H]1O [compound 4]
- IC50 (SaSerRS [1]; [7]): 52.7 ± 4.81 µM
- IC50 (EcSerRS [2]; [7]): 17.7 ± 1.42 µM

SMILES: Nc1nc(-c2ccco2)nc2c1ncn2[C@@H]1O[C@H](COS(=O)(=O)NC(=O)[C@@H](N)CO)[C@@H](O)[C@H]1O [compound 6]
- IC50 (SaSerRS [1]; [7]): 32.4 ± 3.56 µM
- IC50 (EcSerRS [2]; [7]): 36.2 ± 2.41 µM

SMILES: Nc1nc(-c2ccsc2)nc2c1ncn2[C@@H]1O[C@H](COS(=O)(=O)NC(=O)[C@@H](N)CO)[C@@H](O)[C@H]1O [compound 7]
- IC50 (SaSerRS [1]; [7]): 1.24 ± 0.12 µM
- IC50 (EcSerRS [2]; [7]): 1.44 ± 0.09 µM

SMILES: C/C=C/c1nc(N)c2ncn([C@@H]3O[C@H](COS(=O)(=O)NC(=O)[C@@H](N)CO)[C@@H](O)[C@H]3O)c2n1 [compound 5]
- IC50 (SaSerRS [1]; [7]): 3.46 ± 0.47 µM
- IC50 (EcSerRS [2]; [7]): 9.38 ± 0.7 µM

SMILES: Nc1nc(Cl)nc2c1ncn2[C@@H]1O[C@H](COS(=O)(=O)NC(=O)[C@@H](N)CO)[C@@H](O)[C@H]1O [compound 2]
- IC50 (SaSerRS [1]; [7]): 0.26 ± 0.03 µM
- IC50 (EcSerRS [2]; [7]): 0.45 ± 0.05 µM

SMILES: Nc1ncnc2c1ncn2[C@@H]1O[C@H](COS(=O)(=O)NC(=O)[C@@H](N)CO)[C@@H](O)[C@H]1O [compound 1, SerSA]
- IC50 (SaSerRS [1]; pH 7.6, 37 °C, 10 mM MgCl2, 10% DMSO, error as printed is larger than the value): 0.23 ± 0.49 µM
- IC50 (EcSerRS [2]; [7]): 0.21 ± 0.03 µM
- IC50 (HsSerRS [6]): 2.17 ± 0.21 µM

From publication doi:10.1101/586255v1 (biorxiv, 2019)
